Source: PubChem BioAssay AID2060512 (Molecular Pharmacology Branch, DTP, NCI, 2025)
pIC50: −log10 of the molar value.

Test system: 186277-243-T-J2-PDC complex spheroid viability
Experiment: Anticancer human tumor 186277-243-T-J2-PDC patient-derived colon adenocarcinoma cell line growth inhibition [GQUAD]
Conditions: for pIC50: curve of first compound; for viability, T/C: stronger effect = lower value
Excerpt: DNA G-quadruplex Stabilizer Agents in Combinations in Complex Spheroids
A high-throughput screen of multi-cell type tumor spheroids was designed to identify active combinations of DNA G-quadruplex stabilizer agents and targeted small molecules. Complex spheroids include a stromal component modeled by human endothelial cells (HUVEC) and fibroblasts modeled by human mesenchymal stem cells (MSCs). The concentration ranges selected for each drug and investigational agent were based upon clinically achievable concentrations if the clinical Cmax of the agent was known.
Compounds. The drugs and investigational agents: pidnarulex (CX-5461; NSC782164), APTO-253 (NSC789042), BRACO-19 (NSC847499), peposertib (NSC802822), ceralasertib (NSC780249), elimusertib (NSC800525), camonsertib (NSC841442), AZD-1390 (NSC803789), olaparib (NSC753686), talazoparib (NSC767125), ART-558 (NSC835418), sotorasib (NSC818433), MRTX-1133 (NSC836407), SN-38 (NSC673596), topotecan (NSC609699), etoposide (NSC141540), doxorubicin (NSC123127), gemcitabine (NSC613327), 5-fluorouracil (NSC19893), paclitaxel (NSC125973), vemurafenib (NSC761431), panobinostat (NSC761190), R-306465 (JNJ-16241199; NSC773264), adavosertib (NSC754352), TP-3654 (NSC805149), carboplatin (NSC241240), KSQ-4279 (NSC840948), and staurosporine (NSC755774) were obtained from the National Cancer Institute (NCI) Developmental Therapeutics Program Chemical Repository (34). The FDA-approved anticancer drug set is available from the NCI Developmental Therapeutics Program. […] The stock solutions were prepared in dimethyl sulfoxide (DMSO, Sigma-Aldrich, St. Louis, MO, cat. D2650) at 800-fold the tested concentration and stored at -70 degrees C prior to their use. All drugs and investigational agents were tested over a range starting from a high concentration at or near the clinical Cmax and decreasing in half-log increments. If the clinical Cmax for an agent had not been determined, the highest concentration tested was 10 microM.
2.3 Cell Culture. All cells were maintained in an incubator at 37 degrees C and 5% CO2 with 95% humidity. The PDC lines were cultured according to standard operating procedures established by the NCI PDMR. All PDCs were thawed and cultured in Matrigel-coated flasks prepared with a working solution of 1X Ham's F-12 nutrient mix, without supplementation (Invitrogen, cat. 11765054), 100 U/mL penicillin-streptomycin (Invitrogen, cat. 15140122), and 2.5% Matrigel (Corning Inc., cat. 354248) for the first three passages. The 857933-349-R-J2-PDC line was cultured in 6C/Colon 1B media, which includes advanced DMEM/F-12 (Thermo Fisher Scientific, cat. 12634028), 10 mM HEPES (Thermo Fisher Scientific, cat. 15630080), 1X GlutaMAX supplement (Thermo Fisher Scientific, cat. 35050061), 0.1 mg/mL primocin (InvivoGen, cat. ant-pm-2), 10% defined fetal bovine serum, heat inactivated (HyClone Laboratories Inc., cat. SH30070.03HI), 50% L-WRN conditioned media (ATCC, cat. CRL-3276), 1.25 mM N-Acetyl-L-cysteine (Sigma-Aldrich, cat. A9165), 10 mM nicotinamide (Sigma-Aldrich, cat. N0636), 1X B-27 supplement (Thermo Fisher Scientific, cat. 17504044), 1X N-2 supplement (Thermo Fisher Scientific, cat. 17502048), 10 microM Y-27632 dihydrochloride (Tocris Bioscience, cat. 1254), and 50 ng/mL human EGF recombinant protein (Thermo Fisher Scientific, cat. PHG0311). The 485176-168-R4-J1-PDC line was cultured in Panc media, which includes all 6C/Colon 1B media components plus 100 ng/mL human FGF-10 (Thermo Fisher Scientific, cat. 100-26), 500 nM SB-431542 (Selleckchem, cat. S1067), and gastrin (Tocris, cat. 3006).
[…]
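Further: spheroids exposed to drugs for 7 days.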
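Wherever viability, T/C is given: 100% = DMSO vehicle control viability.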

In the case of `Cc1[nH]c2ccccc2c1CCNCc1ccc(/C=C/C(=O)NO)cc1` + CN(C)c1ccc(Nc2c3ccc(NC(=O)CCN4CCCC4)cc3nc3cc(NC(=O)CCN4CCCC4)ccc23)cc1, the pIC50 (second compound 0.0316 µM) was 7.24, the pIC50 (second compound 0.1 µM) was 7.25 and the pIC50 (second compound 0.316 µM) was 7.23. For the same molecule, the pIC50 (second compound 1 µM) was 7.20, the pIC50 (second compound 3.16 µM) was 7.23 and the pIC50 (second compound 10 µM) was 7.24. For the same molecule, the viability, T/C (second compound 0.0316 µM, first compound 0.000999 µM) was 99.5%, the viability, T/C (second compound 0.0316 µM, first compound 0.00316 µM) was 86.5% and the viability, T/C (second compound 0.0316 µM, first compound 0.00999 µM) was 96.7%. For the same molecule, the viability, T/C (second compound 0.0316 µM, first compound 0.0316 µM) was 92.6%, the viability, T/C (second compound 0.0316 µM, first compound 0.0999 µM) was 12.1% and the viability, T/C (second compound 0.0316 µM, first compound 0.316 µM) was 0.65%. For the same molecule, the viability, T/C (second compound 0.1 µM, first compound 0.000999 µM) was 115%, the viability, T/C (second compound 0.1 µM, first compound 0.00316 µM) was 93.7% and the viability, T/C (second compound 0.1 µM, first compound 0.00999 µM) was 80.6%. It also gave a viability, T/C (second compound 0.1 µM, first compound 0.0316 µM) of 84.6%, a viability, T/C (second compound 0.1 µM, first compound 0.0999 µM) of 14.9% and a viability, T/C (second compound 0.1 µM, first compound 0.316 µM) of 0.86%. The viability, T/C (second compound 0.316 µM, first compound 0.000999 µM) was 76.5%, the viability, T/C (second compound 0.316 µM, first compound 0.00316 µM) was 96.9% and the viability, T/C (second compound 0.316 µM, first compound 0.00999 µM) was 91.7%. It also gave a viability, T/C (second compound 0.316 µM, first compound 0.0316 µM) of 87.8%, a viability, T/C (second compound 0.316 µM, first compound 0.0999 µM) of 17.7% and a viability, T/C (second compound 0.316 µM, first compound 0.316 µM) of 2.93%. For the same molecule, the viability, T/C (second compound 1 µM, first compound 0.000999 µM) was 86.3%, the viability, T/C (second compound 1 µM, first compound 0.00316 µM) was 94.6% and the viability, T/C (second compound 1 µM, first compound 0.00999 µM) was 87.4%. For the same molecule, the viability, T/C (second compound 1 µM, first compound 0.0316 µM) was 107%, the viability, T/C (second compound 1 µM, first compound 0.0999 µM) was 21% and the viability, T/C (second compound 1 µM, first compound 0.316 µM) was 1.2%. For the same molecule, the viability, T/C (second compound 3.16 µM, first compound 0.000999 µM) was 93%, the viability, T/C (second compound 3.16 µM, first compound 0.00316 µM) was 93% and the viability, T/C (second compound 3.16 µM, first compound 0.00999 µM) was 96%. It also gave a viability, T/C (second compound 3.16 µM, first compound 0.0316 µM) of 92%, a viability, T/C (second compound 3.16 µM, first compound 0.0999 µM) of 13.1% and a viability, T/C (second compound 3.16 µM, first compound 0.316 µM) of 1.46%. It also gave a viability, T/C (second compound 10 µM, first compound 0.000999 µM) of 82.8%, a viability, T/C (second compound 10 µM, first compound 0.00316 µM) of 92.6% and a viability, T/C (second compound 10 µM, first compound 0.00999 µM) of 97.2%. For the same molecule, the viability, T/C (second compound 10 µM, first compound 0.0316 µM) was 96.2%, the viability, T/C (second compound 10 µM, first compound 0.0999 µM) was 12.4% and the viability, T/C (second compound 10 µM, first compound 0.316 µM) was 0.74%.
